{"source": "ChEMBL document CHEMBL1153495", "about": "“A highly sensitive probe detecting low pH area of HeLa cells based on rhodamine B modified beta-cyclodextrins” (Bioorg Med Chem, 2009)", "key": {"[1]": {"tested_on": "HeLa", "assay": "Cytotoxicity against human HeLa cells up to 1000 uM after 48 hrs by MTT assay", "format": "functional, cell-based"}, "[2]": {"tested_on": "Jurkat", "assay": "Cytotoxicity against human Jurkat cells at 1000 uM after 48 hrs by MTT assay", "format": "functional, cell-based"}, "[3]": {"tested_on": "HeLa", "assay": "Drug uptake in human HeLa cells assessed as staining capability after 5 hrs by fluorescence microscopy", "format": "ADME, cell-based"}}, "note": "Activity calls are given as the source filed them. No cut-off for these calls is given here.", "data": [{"compound": "OC[C@H]1O[C@@H]2O[C@H]3[C@H](O)[C@@H](O)[C@@H](O[C@H]4[C@H](O)[C@@H](O)[C@@H](O[C@H]5[C@H](O)[C@@H](O)[C@@H](O[C@H]6[C@H](O)[C@@H](O)[C@@H](O[C@H]7[C@H](O)[C@@H](O)[C@@H](O[C@H]8[C@H](O)[C@@H](O)[C@@H](O[C@H]1[C@H](O)[C@H]2O)O[C@@H]8CO)O[C@@H]7CO)O[C@@H]6CO)O[C@@H]5CO)O[C@@H]4CO)O[C@@H]3CO", "values": [{"measurement": "Activity", "setting": "[1]", "result": "inactive"}]}, {"compound": "NCCNCCNCCNCCNC[C@H]1O[C@@H]2O[C@H]3[C@H](O)[C@@H](O)[C@@H](O[C@@H]4[C@@H](O)[C@H](O)[C@H](O[C@@H]5[C@@H](O)[C@H](O)[C@H](O[C@@H]6[C@@H](O)[C@H](O)[C@H](O[C@@H]7[C@@H](O)[C@H](O)[C@H](O[C@H]8[C@H](O)[C@@H](O)[C@@H](O[C@H]1[C@H](O)[C@H]2O)O[C@@H]8CO)O[C@H]7CO)O[C@H]6CO)O[C@H]5CO)O[C@H]4CO)O[C@@H]3CO", "values": [{"measurement": "Activity", "setting": "[2]", "result": "Active"}, {"measurement": "Activity", "setting": "[1]", "result": "inactive"}]}, {"compound": "NCCNC[C@H]1O[C@@H]2O[C@H]3[C@H](O)[C@@H](O)[C@@H](O[C@@H]4[C@@H](O)[C@H](O)[C@H](O[C@@H]5[C@@H](O)[C@H](O)[C@H](O[C@@H]6[C@@H](O)[C@H](O)[C@H](O[C@@H]7[C@@H](O)[C@H](O)[C@H](O[C@H]8[C@H](O)[C@@H](O)[C@@H](O[C@H]1[C@H](O)[C@H]2O)O[C@@H]8CO)O[C@H]7CO)O[C@H]6CO)O[C@H]5CO)O[C@H]4CO)O[C@@H]3CO", "values": [{"measurement": "Activity", "setting": "[1]", "result": "inactive"}]}, {"compound": "CCN(CC)c1ccc2c(-c3ccccc3C(=O)O)c3ccc(=[N+](CC)CC)cc-3oc2c1", "note": "[RHODAMINE B]", "values": [{"measurement": "Activity", "setting": "[3]", "result": "Not Active"}]}, {"compound": "CCN(CC)c1ccc2c(-c3ccccc3C(=O)NCCNCCNCCNCCNC[C@H]3O[C@@H]4O[C@H]5[C@H](O)[C@@H](O)[C@@H](O[C@@H]6[C@@H](O)[C@H](O)[C@H](O[C@@H]7[C@@H](O)[C@H](O)[C@H](O[C@@H]8[C@@H](O)[C@H](O)[C@H](O[C@@H]9[C@@H](O)[C@H](O)[C@H](O[C@H]%10[C@H](O)[C@@H](O)[C@@H](O[C@H]3[C@H](O)[C@H]4O)O[C@@H]%10CO)O[C@H]9CO)O[C@H]8CO)O[C@H]7CO)O[C@H]6CO)O[C@@H]5CO)c3ccc(=[N+](CC)CC)cc-3oc2c1.[Cl-]", "values": [{"measurement": "Drug uptake", "setting": "[3]", "result": 66.6, "unit": "µM"}]}]}
